# According to patent US12138267B2, “Methods of treating respiratory depression modulated by a non-opioid agent” (Enalare Therapeutics Inc., priority 2021, dated 2024):
# Key:
# [1] = clinical; conditions: for AUC(0-t): both, human, plasma, intravenous, propofol Mean AUClast
# Experimental: A study is conducted for Compound A. The study is a 3-period, randomized, placebo-controlled, double-blind, crossover study in healthy subjects. The primary objective of the study was to determine the safety and tolerability of Compound A in healthy participants after low and high doses of Compound A under hypoxic and hypercapnic conditions in conjunction with low and high doses of propofol. Another primary objective of the study was to determine the ventilatory response of low and high doses of Compound A under hypoxic and hypercapnic conditions in conjunction with low and high doses of propofol. A secondary objective of the study was to determine the cardiovascular response of low and high doses of Compound A during hypoxic and hypercapnic conditions in conjunction with low and high doses of propofol. Another secondary objective of the study was to evaluate the ventilatory response after administration of Compound A and propofol, under different ventilatory conditions: hypoxia and hyperoxic exposure at normocapnia followed by the same sequence at hypercapnia. The study was conducted in conformance with Good Clinical Practice. The study was a randomized, double-blinded, placebo-controlled, three-way crossover study to assess the safety, tolerability, respiratory PD, and PK of Compound A in healthy male and female participants. Subjects were initially screened up to 6 weeks prior to randomization. Following successful initial medical screening, they were scheduled for the study and receive a randomization number. Subjects underwent 3 separate treatment periods. In each of these periods, low or high doses of Compound A or placebo were continuously perfused throughout for a period of 270 minutes. During each period, subjects received different intravenous propofol dosages or placebo in set order: placebo—propofol low dose—propofol high dose. Each treatment session of propofol or placebo is […]. During each propofol treatment session, different ventilatory conditions are applied, hypoxia and hypercapnia (FIG. 1). […] Each assessment period (i.e., “run”) consists of a hypoxia/hyperoxic exposure at normocapnia followed by one the same sequence at hypercapnia. […] The participants received the following treatments in random order during the dosing periods: • Placebo+placebo/propofol low/propofol high/ • Compound A low+placebo/propofol low/propofol high • Compound A high+placebo/propofol low/propofol high Subjects were admitted to study site on Day −1 for pre-dose activities and eligibility was reassessed and stayed overnight. On each dosing day (Day 1), subjects were transferred to a special unit at study site in the morning (or early afternoon) after a minimum 8 hour overnight fasting. After placement of the respiratory and cardiovascular monitoring/assessment devices including an arterial line, subjects assumed the semi-recumbent position and sufficient time was allowed for subjects to resume a normal breathing pattern. After completion of baseline evaluations, all measurements were performed as per the schedule of assessments. Upon completion of all measurements on the dosing day, subjects were monitored overnight and assessed the next morning (at least 12 hours post study treatments) prior to discharge (Day 2). Subjects were not immediately discharged in cases where prolonged care is required (e.g., due to adverse event, residual sedation etc.) and were treated as necessary. Duration of Treatment: Participation was approximately 10 weeks divided as follows: • Screening: Up to 42 days before first dosing • Treatment phase of approximately 21 days, including three treatment and study assessment periods of 3 days each with approximately 7 days (minimum of 3) between dosing days • Follow up 7 days after last dosing Healthy adult subjects were selected for the study.
# [2] = test system: healthy participants; conditions: propofol during placebo infusion
# [3] = during infusion with Compound A high dose
# [4] = during infusion with Compound A low dose
smiles,measurement,setting,value
CC(C)c1cccc(C(C)C)c1O [propofol],AUC(0-t),[1]; [3],6150 ± 1170 ng·h/mL
same,AUC(0-t),[1]; [4],5750 ± 1180 ng·h/mL
same,AUC(0-t),[1]; during infusion with placebo,4600 ± 548 ng·h/mL
same,"propofol peak plasma concentration, mean (±SD)",[1]; [3],2620.0 ± 1093.86 ng/mL
same,"propofol peak plasma concentration, mean (±SD)",[1]; [4],2534.2 ± 1192.34 ng/mL
same,"propofol peak plasma concentration, mean (±SD)",[1]; during infusion with placebo,1880.8 ± 265.45 ng/mL
same,Propofol plasma concentrations during infusion with Compound A compared to placebo infusion,[1]; in vivo,tended to be higher during infusion with Compound A
same,Propofol plasma concentrations versus targeted concentration,"[1]; propofol high dose infusion, target 1200 ng/mL",exceeding those targeted
same,propofol Geometric mean Cav200-270 min,"[1]; propofol high dose interval, range across treatments",1525.12 to 1862.45 ng/mL
same,propofol Geometric mean Cav115-185 min,"[1]; propofol low dose interval, range across treatments",452.62 to 559.80 ng/mL
same,Effect of propofol on hypoxic sensitivity,[2],decreased hypoxic sensitivity
